We go through 7 molecules from patent publication US8658791B2, “2-substituted-6-amino-5-alkyl, alkenyl or alkynyl-4-pyrimidinecarboxylic acids and 6-substituted-4-amino-3-alkyl, alkenyl or alkynyl picolinic acids and their use as herbicides” (Dow AgroSciences, LLC, priority 2007, dated 2014).

Data set [1] relates to lambsquarter (Chenopodium album). Put plainly: General postemergence herbicidal activity, CHEAL. Type of data set: in vivo. To be noted: Chenopodium album, post-emergence, 336 h, postemergence spray, visual score after 14 days, 0 = no injury, 100 = complete kill, read-out: Post-emergent Weed Control CHEAL; for pest or weed control at 70 g/ha: 70 g ai/ha; for pest or weed control at 140 g/ha: 140 g ai/ha; for pest or weed control at 280 g/ha: 280 g ai/ha. The gist of the method: (§1)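 Plants grown in greenhouse (~15 h photoperiod, 23-29 °C day) to first or second true leaf stage were sprayed with compound in acetone/DMSO-based aqueous spray mix containing crop oil concentrate and surfactant at 187 L/ha, as highest rate plus 1/2X to 1/16X serial dilutions. Injury scored visually after 14 days, 0–100%.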

The test system of data set [2] is velvetleaf (Abutilon theophrasti). Description: General postemergence herbicidal activity, ABUTH. The settings on record: Abutilon theophrasti, post-emergence, 336 h, postemergence spray, visual score after 14 days, 0 = no injury, 100 = complete kill, read-out: Post-emergent Weed Control ABUTH; for pest or weed control at 70 g/ha: 70 g ai/ha; for pest or weed control at 140 g/ha: 140 g ai/ha; for pest or weed control at 280 g/ha: 280 g ai/ha. Type of data set: in vivo. The method in brief: as §1

The subject of data set [3] is wild poinsettia (Euphorbia heterophylla). Put plainly: General postemergence herbicidal activity, EPHHL. To be noted: Euphorbia heterophylla, post-emergence, 336 h, postemergence spray, visual score after 14 days, 0 = no injury, 100 = complete kill, read-out: Post-emergent Weed Control EPHHL; for pest or weed control at 70 g/ha: 70 g ai/ha; for pest or weed control at 140 g/ha: 140 g ai/ha; for pest or weed control at 280 g/ha: 280 g ai/ha. Format: in vivo. The method in brief: as §1

In data set [4] the test system is barnyardgrass (Echinochloa crus-galli). Put plainly: General postemergence herbicidal activity, ECHCG. Type of data set: in vivo. The settings on record: Echinochloa crus-galli, post-emergence, 336 h, postemergence spray, visual score after 14 days, 0 = no injury, 100 = complete kill, read-out: Post-emergent Weed Control ECHCG; for pest or weed control at 70 g/ha: 70 g ai/ha; for pest or weed control at 140 g/ha: 140 g ai/ha; for pest or weed control at 280 g/ha: 280 g ai/ha. The gist of the method: as §1

Data set [5] has as its system rice (Oryza sativa). Put plainly: General postemergence herbicidal activity, ORYSA. To be noted: Oryza sativa, post-emergence, 336 h, postemergence spray, visual score after 14 days, 0 = no injury, 100 = complete kill, read-out: Post-emergent Weed Control ORYSA; for plant injury at 70 g/ha: 70 g ai/ha; for plant injury at 140 g/ha: 140 g ai/ha; for plant injury at 280 g/ha: 280 g ai/ha. Format: in vivo. The method in brief:
as §1

Data set [6] deals with lambsquarter (Chenopodium album). Put plainly: General preemergence herbicidal activity, CHEAL. Format: in vivo. To be noted: applied to soil surface, visual score after 20-22 days, 0 = no injury, 100 = complete kill or no emergence, read-out: Pre-emergent Weed Control CHEAL; for pest or weed control at 140 g/ha: 140 g ai/ha. The source says:
(§2) Seeds of the desired test plant species were planted in a soil matrix prepared by mixing a loam soil (43 percent silt, 19 percent clay, and 38 percent sand, with a pH of about 8.1 and an organic matter content of about 1.5 percent) and sand in a 70 to 30 ratio. The soil matrix was contained in plastic pots with a surface area of 127 square centimeters. When required to ensure good germination and healthy plants, a fungicide treatment and/or other chemical or physical treatment was applied. A weighed amount, determined by the highest rate to be tested, of each test compound was placed in a 25 mL glass vial and was dissolved in 6 mL of a 97:3 v/v (volume/volume) mixture of acetone and DMSO to obtain concentrated stock solutions. […] The stock solutions obtained were diluted with 18 mL of a 0.1% v/v aqueous solution of Tween® 20 surfactant to obtain spray solutions containing the highest application rate. Additional application rates were obtained by serial dilution of 12 mL of the high rate solution into a solution containing 3 mL of 97:3 v/v mixture of acetone and DMSO and 9 mL of the 0.1% v/v aqueous solution of Tween® 20 surfactant to obtain 1/2X, 1/4X, 1/8X and 1/16X rates of the high rate. Compound requirements are based upon a 12 mL application volume at a rate of 187 L/ha. Formulated compounds were applied to the soil surface with an overhead Mandel track sprayer equipped with a […] nozzles calibrated to deliver 187 L/ha over an application area of 0.503 square meters at a spray height of 18 inches (43 cm) above the soil surface. Control pots were sprayed in the same manner with the solvent blank. The treated pots and control pots were placed in a greenhouse maintained with an approximate 15 hour photoperiod and temperatures of about 23-29° C. during the day and 22-28° C. during the night. Nutrients and water were added on a regular basis and supplemental lighting was provided with overhead metal halide 1000-Watt lamps as necessary. The water was added by top-irrigation. After 20-22 days, the condition of the test plants that germinated and grew as compared with that of the untreated plants that emerged and grew was determined visually and scored on a scale of 0 to 100 percent where 0 corresponds to no injury and 100 corresponds to complete kill or no emergence.

The test system of data set [7] is velvetleaf (Abutilon theophrasti). Put plainly: General preemergence herbicidal activity, ABUTH. Type of data set: in vivo. The settings on record: applied to soil surface, visual score after 20-22 days, 0 = no injury, 100 = complete kill or no emergence, read-out: Pre-emergent Weed Control ABUTH; for pest or weed control at 140 g/ha: 140 g ai/ha.
Description: as §2

Data set [8] has as its system wild poinsettia (Euphorbia heterophylla). Description: General preemergence herbicidal activity, EPHHL. Type of data set: in vivo. The settings on record: applied to soil surface, visual score after 20-22 days, 0 = no injury, 100 = complete kill or no emergence, read-out: Pre-emergent Weed Control EPHHL; for pest or weed control at 140 g/ha: 140 g ai/ha.
Description: as §2

Data set [9] deals with barnyardgrass (Echinochloa crus-galli). Put plainly: General preemergence herbicidal activity, ECHCG. Type of data set: in vivo. The settings on record: applied to soil surface, visual score after 20-22 days, 0 = no injury, 100 = complete kill or no emergence, read-out: Pre-emergent Weed Control ECHCG; for pest or weed control at 140 g/ha: 140 g ai/ha.
Description: as §2

In data set [10] the test system is rice (Oryza sativa). Description: General preemergence herbicidal activity, ORYSA. Type of data set: in vivo. To be noted: applied to soil surface, visual score after 20-22 days, 0 = no injury, 100 = complete kill or no emergence, read-out: Pre-emergent Weed Control ORYSA; for plant injury at 140 g/ha: 140 g ai/ha.
Description: as §2

For `C=Cc1c(N)nc(-c2ccc(Cl)c(F)c2F)nc1C(=O)OC` [Compound 11, 6-Amino-2-(4-chloro-2,3-difluorophenyl)-5-vinyl-pyrimidine-4-carboxylic acid methyl ester], the pest or weed control at 70 g/ha stood at 100% in data set [1]; 100% in [2]; 100% in [3]; 90% in data set [4]; 100% in [6] (70 g ai/ha); 100% in data set [7] (70 g ai/ha). The pest or weed control at 70 g/ha in [8] (70 g ai/ha) and in [9] (70 g ai/ha) was 100% throughout. For the same molecule, the figures for the plant injury at 70 g/ha in the data set on rice (Oryza sativa) [5] and in the data set with rice (Oryza sativa) [10] (70 g ai/ha) were 0% and 95%, respectively.

On to `CCc1c(N)nc(-c2ccc(Cl)c(OC)c2F)nc1C(=O)OC` [Compound 21, 6-Amino-2-(4-chloro-2-fluoro-3-methoxyphenyl)-5-ethyl-pyrimidine-4-carboxylic acid methyl ester], for which the pest or weed control at 140 g/ha in data set [1] was 100%; in data set [2], 85%; in [3], 100%; in data set [4], 70%; in data set [6] it was 40%; in data set [7] it was 60%. Besides, the pest or weed control at 140 g/ha stood at 80% in [8] and 0% in [9]. For the same molecule, the plant injury at 140 g/ha in the data set on rice (Oryza sativa) [5] and with rice (Oryza sativa) [10] was 0% in each case.

As usually defined, the melting point is the temperature of the solid-liquid transition. In turn, `C=Cc1c(N)nc(-c2ccc(Cl)cc2F)nc1C(=O)O` [Compound 42, 6-Amino-2-(4-chloro-2-fluorophenyl)-5-vinylpyrimidine-4-carboxylic acid] displayed a melting point of 167 to 169 °C. Also, the pest or weed control at 140 g/ha in [6] was found to be 100%. For the same molecule, the pest or weed control at 140 g/ha in [7] is 100%. Also, in data set [8], the pest or weed control at 140 g/ha turned out to be 100%. The pest or weed control at 140 g/ha in data set [9] worked out at 30%. For the same molecule, the plant injury at 140 g/ha with rice (Oryza sativa) [10] worked out at 10%.

With `C=Cc1c(N)nc(-c2ccc(Cl)cc2)nc1C(=O)O` [Compound 43, 6-Amino-2-(4-chlorophenyl)-5-vinylpyrimidine-4-carboxylic acid], the pest or weed control at 280 g/ha was 100% in data set [1], 90% in data set [2], 100% in data set [3] and 90% in [4]. For the same molecule, the plant injury at 280 g/ha in the data set on rice (Oryza sativa) [5] was found to be 35%. The pest or weed control at 140 g/ha in data set [6] was found to be 100%; in data set [7], 100%; in data set [8], 100%; in data set [9], 90%. Besides, the plant injury at 140 g/ha in the data set on rice (Oryza sativa) [10] is 90%.

Consider `C=Cc1c(N)nc(-c2ccc(Cl)c(OC)c2)nc1C(=O)O` [Compound 45, 6-Amino-2-(4-chloro-3-methoxyphenyl)-5-vinylpyrimidine-4-carboxylic acid], for which the pest or weed control at 280 g/ha came to 95% in data set [1], 0% in [2], 60% in data set [3] and 60% in data set [4]. The plant injury at 280 g/ha in the data set with rice (Oryza sativa) [5] came to 0%. Further, the pest or weed control at 140 g/ha was determined as 60% in data set [6], 0% in data set [7], 0% in data set [8] and 10% in data set [9]. The plant injury at 140 g/ha in the data set with rice (Oryza sativa) [10] was found to be 30%.

In the case of `C/C=C\c1c(N)nc(-c2ccc(Cl)c(OC)c2F)nc1C(=O)O` [Compound 55, 6-Amino-2-(4-chloro-2-fluoro-3-methoxyphenyl)-5-((Z)-propenyl)pyrimidine-4-carboxylic acid], the pest or weed control at 70 g/ha in data set [1], in [2], in data set [3] and in [4] was 100% each time. Also, in the data set on rice (Oryza sativa) [5], the plant injury at 70 g/ha was found to be 15%. Besides, the pest or weed control at 140 g/ha is 100% in [6], 100% in data set [7], 100% in data set [8] and 60% in data set [9]. In addition, in the data set with rice (Oryza sativa) [10], the plant injury at 140 g/ha came to 30%.

Consider `C=Cc1c(N)cc(-c2ccc(Cl)c(OC)c2F)nc1C(=O)O` [Compound 59, 4-Amino-6-(4-chloro-2-fluoro-3-methoxyphenyl)-3-vinylpyridine-2-carboxylic acid], for which the pest or weed control at 140 g/ha in data set [1], in data set [2], in data set [3], in [4], in [6] and in data set [7] was 100% throughout. Besides, the pest or weed control at 140 g/ha in [8] and in data set [9] was 100% throughout. The plant injury at 140 g/ha in the data set with rice (Oryza sativa) [5] and with rice (Oryza sativa) [10] was 0% each time.
